From BindingDB's records for patent US12331046 (Nimbus Clotho, 2025)

Each compound was assayed against T1, CTP synthase 1 (Homo sapiens, UniProt P17812) (assay: hCTPS1 Biochemical Assay).
T1 sequence (P17812 whole entry): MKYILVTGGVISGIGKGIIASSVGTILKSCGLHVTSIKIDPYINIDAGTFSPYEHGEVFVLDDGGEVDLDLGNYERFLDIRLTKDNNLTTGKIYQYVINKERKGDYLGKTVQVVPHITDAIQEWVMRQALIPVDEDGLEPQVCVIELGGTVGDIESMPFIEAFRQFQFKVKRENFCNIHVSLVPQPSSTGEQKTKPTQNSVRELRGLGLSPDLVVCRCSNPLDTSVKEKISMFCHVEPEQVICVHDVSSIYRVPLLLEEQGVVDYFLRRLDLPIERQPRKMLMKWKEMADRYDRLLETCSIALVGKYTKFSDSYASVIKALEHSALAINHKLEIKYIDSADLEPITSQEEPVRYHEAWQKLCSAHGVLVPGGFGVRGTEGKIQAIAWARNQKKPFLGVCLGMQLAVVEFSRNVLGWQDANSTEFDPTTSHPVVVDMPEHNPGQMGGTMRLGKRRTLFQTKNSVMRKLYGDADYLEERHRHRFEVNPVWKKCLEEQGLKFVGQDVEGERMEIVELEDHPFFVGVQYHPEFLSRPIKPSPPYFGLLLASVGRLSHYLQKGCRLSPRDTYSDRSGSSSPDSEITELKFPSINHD
Experimental: Purified human CTPS1 protein was prepared in 1× assay buffer to the final working protein concentration required for the reaction. A 2.5 uL volume per well of human CTPS1 protein was mixed with 0.1 uL per well of test compound dissolved in DMSO and pre-incubated at 25 degrees C. for 10 minutes. 2.5 uL per well of the reaction precursors ATP (UltraPure ATP from ADP-Glo™ kit) and UTP were then added and pre-incubated for an additional 10 minutes at 25 degrees C. Finally, the reaction was initiated by the addition of 5 uL of the reaction precursors L-glutamine and GTP. The final concentration of all reaction components in the assay: ATP (120 uM), UTP (160 uM), GTP (60 uM), L-Glutamine (100 uM), DMSO (1%), hCTPS1 (25 nM). This mixture was incubated for an appropriate amount of time within the determined linear phase of the reaction at 25 degrees C. under sealed plate conditions with constant agitation at 500 revolutions per minute (rpm). ADP-Glo™ reagent was added for 60 minutes (10 uL per well) and subsequently ADP-Glo™ development reagent was added for 60 minutes (20 uL per well) prior to signal detection in a microplate reader (Envision Multilabel Reader, Perkin Elmer). Following each reagent addition over the course of the assay, assay plates were pulse centrifuged for 1 minute at 1000 rpm.

Question: `CCOc1cncc(-c2cnc(C(=O)NCc3cc(F)cc(NS(=O)(=O)C4CC4)c3)s2)n1` [US12331046, Compound I-256] was tested. Which IC50 did it give?
Answer: < 100 nM

Question: How did the IC50 turn out when `CCOc1cncc(-c2cnc(C(=O)NCc3cccc(NS(=O)(=O)C(F)F)c3)s2)n1` [US12331046, Compound I-61] was run?
Answer: < 100 nM

Question: `CCOc1cncc(-c2nnc(C(=O)N[C@H](CC)c3cc(NS(=O)(=O)C4CC4)ccn3)s2)n1` [US12331046, Compound I-240] was tested. Which IC50 did it give?
Answer: < 100 nM

Question: With `CCOc1cncc(-c2ccc(C(=O)NC(C#N)c3cc(NS(=O)(=O)C4CC4)ccn3)cc2)n1` (stereo not given) [US12331046, Compound I-64] as the compound, how does the IC50 read?
Answer: < 100 nM

Question: For `CCc1c[nH]c2ncc(-c3ccc(C(=O)NCc4cc(NS(=O)(=O)C5CC5)ccn4)cc3)cc12` [US12331046, Compound I-38], which IC50 is on record?
Answer: < 100 nM
